Test results published in article PMC6277767, “Broad and Region-Specific Impacts of the Synthetic Cannabinoid CP 55,940 in Adolescent and Adult Female Mouse Brains” (Frontiers in Molecular Neuroscience, 2018).

System: CD1 female mouse brain lipidome
Assay: Brain-region lipid levels (HPLC/MS/MS lipidomics) 2 h after single i.p. 3 mg/kg CP 55,940 vs vehicle
Format: in vivo
Set-up: N-arachidonoyl phenylalanine level, Mean / N-stearoyl tryptophan level, Mean / N-stearoyl proline level, Mean / N-stearoyl leucine level, Mean / N-stearoyl phenylalanine level, Mean / N-stearoyl serine level, Mean / N-stearoyl methionine level, Mean: unit: moles per gram
Description: The Bloomington Institutional Animal Care and Use Committee of Indiana University reviewed and approved the animal procedures. Female mice from the CD1 strain were utilized to match our study examining THC’s effects on the brain lipidome ([Leishman et al., 2018]). Mice were given a single i.p. injection of either 3 mg/kg CP or 1:1:18 cremophor:ethanol:saline vehicle (please refer to the section “3 mg/kg CP Is Relevant for Synthetic Cannabinoid Abuse and Has Stronger Effects on the Female Mouse Brain Lipidome During Adolescence” for a justification of dose and use of female mice). Three different age groups were given injections: PND 35 and PND 50 adolescents, and adult mice (PND 113). At least eight mice in each age group received CP and at least eight received vehicle. Matching the THC study time course ([Leishman et al., 2018]), mice were sacrificed via rapid decapitation 2 h after injection. Brains were immediately removed and flash-frozen in liquid nitrogen, and then stored at -80°C until dissections were performed. Brains were dissected on an ice-cold dissection plate into the following regions: STR, HIPP, CER, THAL, CTX, HYP, MID, and STEM. These abbreviations for these brain areas will be used exclusively when discussing the results generated by these specific dissections. Each dissected area was immediately placed in liquid nitrogen and then stored at -80°C until used for lipid extraction.
Tissue extracts were performed as previously described ([Bradshaw et al., 2006]; [Stuart et al., 2013]; [Raboune et al., 2014]; [Leishman et al., 2016a],[b], [2017], [2018]). First, samples were shock frozen in liquid nitrogen, weighed, and transferred to a centrifuge tube. The mass of the largest sample was multiplied by 50 to determine how many milliliters of HPLC-grade methanol (Fisher, Fair Lawn, NJ, United States) to add. Then, samples were spiked with 500 pmol deuterium-labeled NAGly (d8NAGly; Cayman Chemical, Ann Arbor, MI, United States). Samples were placed on ice in darkness for 2 h then individually homogenized and centrifuged at 19,000 × g for 20 min at 20°C. Supernatants were diluted with HPLC water (purified in house) to make a solution of 75% water, 25% supernatant. Lipids were partially purified on C18 solid phase extraction columns (Agilent, Palo Alto, CA, United States). A series of four elutions with 1.5 mL of 60%, 75%, 85%, and 100% methanol were collected ([Stuart et al., 2013]; [Leishman et al., 2016a],[b], [2018]).
As previously described ([Bradshaw et al., 2006]; [Tan et al., 2006]; [Smoum et al., 2010]; [Stuart et al., 2013]; [Tortoriello et al., 2013]; [Raboune et al., 2014]; [Leishman et al., 2016a],[b], [2017], [2018]), samples were analyzed using an Applied Biosystems API 3000 triple quadrupole mass spectrometer with electrospray ionization (Foster City, CA, United States). Using an Agilent XDB-C18 reversed phase analytical column and optimized mobile phase gradients, 20 μL from each elution were chromatographed. Two Shimadzu 10ADvp pumps (Columbia, MD, United States) provided the pressure for gradient elution. Mobile phase A: 20% methanol, 80% water (v/v) and 1 mM ammonium acetate (Sigma, St. Louis, MO, United States). Mobile phase B: 100% methanol, 1 mM ammonium acetate. Every method run began with 0% mobile phase B, reached 100% mobile phase B flowing at 0.2 mL/min, and gradually returned to 0% mobile phase B.
This screening library will be referred to as the lipidome when discussing data from this study. HPLC/MS/MS data were analyzed using Analyst software (Applied Biosystems) ([Bradshaw et al., 2006]; [Tan et al., 2006]; [Stuart et al., 2013]; [Tortoriello et al., 2013]; [Raboune et al., 2014]; [Leishman et al., 2016a],[b], [2017], [2018]). Chromatograms (Supplementary Figure 3) were generated by determining the retention time of analytes from the analytical column with a [M-1] or [M+1] parent peak and a fragmentation peak corresponding to the programmed values. […]

[1] = brainstem, PND 50, 3 mg/kg CP 55,940, one-way ANOVA p .062
[2] = brainstem, PND35 WT female mice, 3 mg/kg
[3] = cerebellum, PND 50, 3 mg/kg CP 55,940
[4] = cerebellum, PND 50 female mice, 3 mg/kg CP 55,940

SMILES: CCCCCCC(C)(C)c1ccc([C@@H]2C[C@H](O)CC[C@H]2CCCO)c(O)c1 [CP 55,940]
- 2-oleoyl glycerol, Magnitude (x Veh level) (brainstem, PND 50, 3 mg/kg CP 55,940, one-way ANOVA p .046): 0.86 x Veh level
- 2-palmitoyl glycerol, Direction (relative to Veh) [1]: ↓
- 2-palmitoyl glycerol, Magnitude (x Veh level) [1]: 0.71 x Veh level
- N-arachidonoyl GABA level, Mean [2]: 8.01E-12
- N-arachidonoyl alanine level, Mean [2]: 6.76E-12
- N-arachidonoyl ethanolamine level, Mean [2]: 2.09E-11
- N-arachidonoyl glycine level, Mean [2]: 4.63E-11
- N-arachidonoyl methionine level, Mean [2]: 8.72E-13
- N-arachidonoyl phenylalanine level, Mean [2]: 9.69E-13
- N-docosahexaenoyl GABA level, Mean [2]: 2.13E-12
- N-docosahexaenoyl alanine level, Mean [2]: 4.95E-12
- N-docosahexaenoyl ethanolamine level, Mean [2]: 4.42E-11
- N-docosahexaenoyl glycine level, Mean [2]: 2.18E-11
- N-docosahexaenoyl leucine level, Mean [2]: 5.85E-13
- N-docosahexaenoyl phenylalanine level, Mean [2]: 8.51E-13
- N-linoleoyl GABA level, Mean [2]: 8E-13
- N-linoleoyl alanine level, Mean [2]: 1.32E-12
- N-linoleoyl ethanolamine level, Mean [2]: 3.37E-11
- N-linoleoyl glycine level, Mean [2]: 5.99E-12
- N-linoleoyl leucine level, Mean [2]: 3.47E-13
- N-oleoyl GABA level, Mean [2]: 4.65E-12
- N-oleoyl alanine level, Mean [2]: 7.64E-12
- N-oleoyl ethanolamine level, Mean [2]: 2.04E-10
- N-oleoyl glycine level, Mean [2]: 2.66E-11
- N-oleoyl leucine level, Mean [2]: 1.35E-12
- N-oleoyl methionine level, Mean [2]: 1.16E-12
- N-oleoyl phenylalanine level, Mean [2]: 1.05E-12
- N-palmitoyl GABA level, Mean [2]: 7.63E-12
- N-palmitoyl alanine level, Mean [2]: 8.91E-12
- N-palmitoyl ethanolamine level, Mean [2]: 1.31E-10
- N-palmitoyl glycine level, Mean [2]: 4.17E-11
- N-palmitoyl leucine level, Mean [2]: 2.63E-12
- N-palmitoyl methionine level, Mean [2]: 1.43E-12
- N-palmitoyl phenylalanine level, Mean [2]: 2.02E-12
- N-stearoyl GABA level, Mean [2]: 6.98E-12
- N-stearoyl alanine level, Mean [2]: 1.31E-11
- N-stearoyl ethanolamine level, Mean [2]: 3.25E-11
- N-stearoyl glycine level, Mean [2]: 2.18E-11
- N-stearoyl leucine level, Mean [2]: 8.28E-13
- N-stearoyl methionine level, Mean [2]: 1.7E-12
- N-stearoyl phenylalanine level, Mean [2]: 1.48E-12
- 2-linoleoyl glycerol: Direction (relative to Veh) [3]: ↓
- 2-linoleoyl glycerol: Magnitude (x Veh level) [3]: 0.65 x Veh level
- 2-oleoyl glycerol: Direction (relative to Veh) [3]: ↓
- 2-oleoyl glycerol: Magnitude (x Veh level) [3]: 0.77 x Veh level
- 2-palmitoyl glycerol: Direction (relative to Veh) [3]: ↓
- 2-palmitoyl glycerol: Magnitude (x Veh level) [3]: 0.69 x Veh level
- 6-ketoPGF1α: Direction (relative to Veh) [3]: ↑
- 6-ketoPGF1α: Magnitude (x Veh level) [3]: 1.33 x Veh level
- Arachidonic acid: Direction (relative to Veh) [3]: ↓
- Arachidonic acid: Magnitude (x Veh level) [3]: 0.74 x Veh level
- Linoleic acid: Direction (relative to Veh) [3]: ↓
- Linoleic acid: Magnitude (x Veh level) [3]: 0.73 x Veh level
- N-arachidonoyl GABA: Direction (relative to Veh) [3]: ↓
- N-arachidonoyl GABA: Magnitude (x Veh level) [3]: 0.75 x Veh level
- N-arachidonoyl ethanolamine: Direction (relative to Veh) [3]: ↓
- N-arachidonoyl ethanolamine: Magnitude (x Veh level) [3]: 0.81 x Veh level
- N-arachidonoyl glycine: Direction (relative to Veh) [3]: ↓
- N-arachidonoyl glycine: Magnitude (x Veh level) [3]: 0.68 x Veh level
- N-arachidonoyl phenylalanine: Direction (relative to Veh) [3]: ↓
- N-arachidonoyl phenylalanine: Magnitude (x Veh level) [3]: 0.60 x Veh level
- N-arachidonoyl serine: Direction (relative to Veh) [3]: ↓
- N-arachidonoyl serine: Magnitude (x Veh level) [3]: 0.78 x Veh level
- N-arachidonoyl taurine: Direction (relative to Veh) [3]: ↓
- N-arachidonoyl taurine: Magnitude (x Veh level) [3]: 0.83 x Veh level
- N-arachidonoyl tyrosine: Direction (relative to Veh) [3]: ↓
- N-arachidonoyl tyrosine: Magnitude (x Veh level) [3]: 0.73 x Veh level
- N-docosahexaenoyl phenylalanine: Direction (relative to Veh) [3]: ↓
- N-docosahexaenoyl phenylalanine: Magnitude (x Veh level) [3]: 0.77 x Veh level
- N-linoleoyl ethanolamine: Direction (relative to Veh) [3]: ↓
- N-linoleoyl ethanolamine: Magnitude (x Veh level) [3]: 0.77 x Veh level
- N-oleoyl GABA: Direction (relative to Veh) [3]: ↓
- N-oleoyl GABA: Magnitude (x Veh level) [3]: 0.76 x Veh level
- N-oleoyl ethanolamine: Direction (relative to Veh) [3]: ↓
- N-oleoyl ethanolamine: Magnitude (x Veh level) [3]: 0.85 x Veh level
- N-oleoyl phenylalanine: Direction (relative to Veh) [3]: ↑
- N-oleoyl phenylalanine: Magnitude (x Veh level) [3]: 1.26 x Veh level
- N-palmitoyl leucine: Direction (relative to Veh) [3]: ↑
- N-palmitoyl leucine: Magnitude (x Veh level) [3]: 1.63 x Veh level
- N-palmitoyl valine: Direction (relative to Veh) [3]: ↑
- N-palmitoyl valine: Magnitude (x Veh level) [3]: 1.49 x Veh level
- Oleic acid: Direction (relative to Veh) [3]: ↓
- Oleic acid: Magnitude (x Veh level) [3]: 0.83 x Veh level
- PGE2: Direction (relative to Veh) [3]: ↓
- PGE2: Magnitude (x Veh level) [3]: 0.68 x Veh level
- PGF2α: Direction (relative to Veh) [3]: ↓
- PGF2α: Magnitude (x Veh level) [3]: 0.72 x Veh level
- 2-arachidonoyl glycerol level, Mean [4]: 1.99E-10
- 2-linoleoyl glycerol level, Mean [4]: 1.45E-10
- 2-oleoyl glycerol level, Mean [4]: 1.49E-09
- 2-palmitoyl glycerol level, Mean [4]: 1.57E-09
- 6-ketoPGF1α level, Mean [4]: 6.52E-12
- 11-OH-THC level, Mean [4]: BDL
- 11-nor-9-carboxyTHC level, Mean [4]: BDL
- Arachidonic acid level, Mean [4]: 1.8E-10
- Cannabidiol level, Mean [4]: BDL
- Linoleic acid level, Mean [4]: 1.87E-10
- N- stearoyl valine level, Mean [4]: 9.25E-14
- N-arachidonoyl GABA level, Mean [4]: 3.92E-12
- N-arachidonoyl dopamine level, Mean [4]: BDL
- N-arachidonoyl ethanolamine level, Mean [4]: 2.25E-11
- N-arachidonoyl glycine level, Mean [4]: 1.1E-12
